Tests used:
[1] = biological target: T1, human estrogen receptor α (Homo sapiens, UniProt P03372); test: Estrogen Receptor α Flash Plate Assay (binding of radiolabeled estrogen); settings: for IC50: read-out: ERα Binding IC50; for inhibition at 1 µM: read-out: ERα at 1µM % Inhibition
T1 construct: purchased Panvera
T1 sequence (P03372 1-595): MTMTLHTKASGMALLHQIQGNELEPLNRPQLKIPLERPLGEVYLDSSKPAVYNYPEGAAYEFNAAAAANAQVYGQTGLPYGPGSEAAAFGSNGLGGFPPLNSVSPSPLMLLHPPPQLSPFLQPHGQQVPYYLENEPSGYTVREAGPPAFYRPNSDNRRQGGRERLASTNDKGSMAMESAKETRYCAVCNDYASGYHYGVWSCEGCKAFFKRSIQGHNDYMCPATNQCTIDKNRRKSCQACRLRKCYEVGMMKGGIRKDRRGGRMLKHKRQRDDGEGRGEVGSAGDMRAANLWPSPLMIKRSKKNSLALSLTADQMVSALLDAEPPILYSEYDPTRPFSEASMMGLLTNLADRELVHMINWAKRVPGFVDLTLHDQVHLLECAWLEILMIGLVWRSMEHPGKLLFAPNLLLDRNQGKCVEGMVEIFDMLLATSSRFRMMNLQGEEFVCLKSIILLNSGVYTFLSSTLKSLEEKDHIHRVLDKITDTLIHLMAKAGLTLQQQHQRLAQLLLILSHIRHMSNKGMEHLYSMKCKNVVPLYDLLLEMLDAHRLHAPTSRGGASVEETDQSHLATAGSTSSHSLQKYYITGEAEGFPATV
Description: This assay monitors binding of radiolabeled estrogen to the estrogen receptor. It was performed on a BioMek 2000 (Beckman). Plates were read in a scintillation counter (Packard TopCount), with decreased counts an indication of binding of a compound to the receptor. The assay was run according to the procedure described by Allan, et al., Anal. Biochem. (1999), 275(2), 243-247.
On day one, 100 µL of Estrogen Screening Buffer (ESB, Panvera) containing 5mM dithiothreitol (DTT, Panvera), 0.5 µg mouse anti-estrogen receptor monoclonal antibody (SRA-1010, Stressgen) and 50 ng purified human estrogen receptor α (nER-α, Panvera) were added to each well of a 96 well FlashPlate Plus plate crosslinked with goat anti-mouse antibodies (NEN Life Sciences). The plate was sealed and incubated at 4°C overnight.
On day two, each well was washed three times with 200 µL PBS, pH 7.2, at room temperature. To each well was then added 98 µL radiolabeled estrogen (0.5 nM, which equals 6 nCi for a 120 Ci/mmol batch, Amersham), diluted in ESB and 5mM dithiothreitol (DTT). To individual wells were then added 2.5 µL test compound diluted in 30% (v/v) dimethyl sulfoxide/50 mM HEPES, pH 7.5. The wells were mixed three times by aspiration, the plate sealed and incubated at room temperature for one hour. The wells were then counted for 1 min in a TopCount scintillation counter (Packard).

MCF-7 cells = test: MCF-7 Cell Proliferation Assay (14C-thymidine incorporation); assay type: cell-based; settings: Homo sapiens, MCF7, increase in 14C-thymidine vs vehicle, read-out: MCF7 (Breast) EC50
Description: This assay was run according to the procedure described by Welshons, et al., (Breast Cancer Res. Treat., 1987, 10(2), 169-75), with minor modification.
Briefly, MCF-7 cells (from Dr. C. Jordan, Northwestern University) were maintained in RPMI 1640 phenol red free medium (Gibco) in 10% FBS (Hyclone), supplemented with bovine insulin and non-essential amino acid (Sigma). The cells were initially treated with 4-hydoxyltamoxifen (10^-8 M) and let stand at 37°C for 24 hours. Following this incubation with tamoxifen, the cells were treated with compounds at various concentrations.
Compounds to be tested in the agonist mode were added to the culture media at varying concentrations. Compounds to be treated in the antagonist mode were prepared similarly, and 10 nM 17β-estradiol was also added to the culture media. The cells were incubated for 24 hours at 37°C. Following this incubation, 0.1 µCi of ^14C-thymidine (56mCi/mmol, Amersham) was added to the culture media and the cells were incubated for an additional 24 hours at 37°C. The cells were then washed twice with Hank's buffered salt solution (HBSS) (Gibco) and counted with a scintillation counter. The increase in the ^14C-thymidine in the compound treated cells relative to the vehicle control cells were reported as percent increase in cell proliferation.

[2] = system: Human Endometrial lshikawa Cells; test: Alkaline Phosphatase Assay in Human Endometrial Ishikawa Cells; assay type: cell-based; settings: increase in alkaline phosphatase activity vs vehicle
Description: This assay was run according to the procedure described by Albert et a., Cancer Res, […], 50(11), 330-6-10, with minor modification.
Ishikawa cells (from ATCC) were maintained in DMEM/F12 (1:1) phenol red free medium (Gibco) supplemented with 10% calf serum (Hyclone). 24 hours prior to testing, the medium was changed to DMEM/F12 (1:1) phenol red free containing 2% calf serum.
Compounds to be tested in the agonist mode were added to the culture media at varying concentrations. Compounds to be treated in the antagonist mode were prepared similarly, and 10 nM 17β-estradiol was also added to the culture media. The cells were then incubated at 37°C for 3 days. On the fourth day, the media was remove, 1 volume of 1X Dilution Buffer (Clontech) was added to the well followed by addition of 1 volume of Assay Buffer (Clontech). The cells were then incubated at room temperature for 5 minutes. 1 volume of freshly prepared Chemiluminescence Buffer (1 volume of chemiluminescent substrate (CSPD) in 19 volume Chemiluminescent Enhancer with final concentration of CSPD at 1.25 mM; Sigma Chemical Co.) was added. The cells were incubated at room temperature for 10 minutes and then quantified on a luminometer. The increase of chemiluminescence over vehicle control was used to calculate the increase in alkaline phosphatase activity.

[3] = biological target: T2, human estrogen receptor β (Homo sapiens, UniProt Q92731); test: Estrogen Receptor β Fluorescence Polarization Assay (Fluormone ES2 displacement); assay type: binding; settings: read-out: ERβ at 1 µM % Inhibition
T2 construct: purchased Panvera
Text: This assay monitors binding of a fluorescent analog of estrogen (Fluormone ES2, Panvera) to the estrogen receptor. Plates were read in a fluorometer that can be set to polarization mode. A decrease in fluorescence relative to vehicle control is an indication of binding of a compound to the receptor.
It is crucial to avoid introduction of air bubbles into the reaction in each well of the 96 well plate throughout this procedure. (Bubbles on the surface of the reaction disrupt light flow, affecting the polarization reading.) However, it is also crucial to effectively mix the reaction components upon addition to the well.
On ice, a 2X standard mixture of Assay Buffer (Panvera), 10 nM DTT and 40 nM ES2 was prepared. On ice, a 2X reaction mixture of Assay Buffer (Panvera), and 20 nM human estrogen receptor β (hER-β, Panvera) and 40 nM ES2 was also prepared.
Dilutions of test compound were prepared in 30% (v/v) dimethyl sulfoxide/50 mM HEPES, pH 7.5. At this point, the dilutions were 40X the final required concentration.
The standard mixture at 50 µL was then added to each well. The reaction mixture at 48 µL was added to all wells. The compound dilution at 2.5 µL was added to the appropriate wells. The reaction mixtures were mixed using a manual pipette, a roll of aluminum foil adhesive cover was placed on the plate and the plate incubated at room temperature for 1 hour.
Each well on the plate was then read in an LjL Analyst with an excitation wavelength of […] and an emission wavelength of 538.

T2 sequence (Q92731 whole entry): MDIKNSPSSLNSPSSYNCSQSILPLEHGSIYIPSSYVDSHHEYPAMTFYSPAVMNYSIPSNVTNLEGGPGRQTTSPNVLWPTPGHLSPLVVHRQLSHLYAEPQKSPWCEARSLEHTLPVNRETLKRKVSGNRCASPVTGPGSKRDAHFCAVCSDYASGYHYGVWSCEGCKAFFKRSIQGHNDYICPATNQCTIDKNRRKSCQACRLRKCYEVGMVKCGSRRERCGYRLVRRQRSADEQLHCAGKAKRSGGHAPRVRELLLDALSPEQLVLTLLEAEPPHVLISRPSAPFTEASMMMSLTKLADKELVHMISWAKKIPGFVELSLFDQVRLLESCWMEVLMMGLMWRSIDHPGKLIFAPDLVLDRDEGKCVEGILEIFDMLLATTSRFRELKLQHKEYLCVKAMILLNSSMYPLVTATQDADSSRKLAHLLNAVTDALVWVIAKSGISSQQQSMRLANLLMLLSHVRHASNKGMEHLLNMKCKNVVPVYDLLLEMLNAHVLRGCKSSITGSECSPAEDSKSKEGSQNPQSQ

Structure (SMILES) | inhibition at 1 µM [1] [%] | inhibition at 1 µM [3] [%] | IC50 [1] [nM] | EC50 (MCF-7 cells) [nM] | EC50 [2] [nM]
C[C@]12CCC3c4ccc5[nH]ccc5c4CCC3C1CC[C@@H]2O (stereo partly shown) [Compound 6] |  |  | 42 | 2.9 | 0.21
C[C@]12CCC3c4cc5cc[nH]c5cc4CCC3C1CC[C@@H]2OC(=O)CCC(=O)O (stereo partly shown) [Compound 13] |  |  | 920 | 15 | 1.2
C[C@]12CCC3c4cc5cc[nH]c5cc4CCC3C1CC[C@@H]2O (stereo partly shown) [Compound 8] |  |  | 40 | 11 | 0.44
C[C@]12CCC3c4cc5cc[nH]c5cc4CCC3C1CCC2=O (stereo partly shown) [Compound 3] |  |  | 2200 | 240 | 1.9
C[C@]12CCC3c4ccc5[nH]ccc5c4CCC3C1CCC2=O (stereo partly shown) [Compound 4] |  |  | 1400 | 280 | 1.8

Second part, led by results:

inhibition at 1 µM [1] [%] | inhibition at 1 µM [3] [%] | Structure (SMILES) | IC50 [1] [nM] | EC50 (MCF-7 cells) [nM] | EC50 [2] [nM]
95 | 96 | CCCCC(=O)O[C@H]1CCC2C3CCc4cc5[nH]ccc5cc4C3CC[C@@]21C (stereo partly shown) [Compound 12] |  |  | 
19 | 14 | C[C@]12CCC3c4cc5ccn(S(C)(=O)=O)c5cc4CCC3C1CC[C@@H]2O (stereo partly shown) [Compound 7] |  |  | 
45 | 27 | C[C@]12CCC3c4ccc5c(ccn5S(C)(=O)=O)c4CCC3C1CCC2=O (stereo partly shown) [Compound 2] |  |  | 
11 | 6.2 | C[C@]12CCC3c4cc5ccn(S(C)(=O)=O)c5cc4CCC3C1CCC2=O (stereo partly shown) [Compound 1] |  |  | 
81 | 66 | CSc1c[nH]c2ccc3c(c12)CCC1C3CC[C@]2(C)C(=O)CCC12 (stereo partly shown) [Compound 15] |  |  | 
